Experimental data reported in paper PMC4060991, “The Human Orphan Nuclear Receptor Tailless (TLX, NR2E1) Is Druggable” (PLoS ONE, 2014).

Key:
human PNR (NR2E3) LBD = biological target: T1, human PNR (NR2E3) LBD (Homo sapiens, UniProt Q9Y5X4); test: GAL4-PNR LBD luciferase transactivation assay in HeLa cells; assay type: cell-based; conditions: 10 µM, 24 h
T1 construct: expressed in transfected cells; host or cells: HeLa
T1 sequence (Q9Y5X4 192-410): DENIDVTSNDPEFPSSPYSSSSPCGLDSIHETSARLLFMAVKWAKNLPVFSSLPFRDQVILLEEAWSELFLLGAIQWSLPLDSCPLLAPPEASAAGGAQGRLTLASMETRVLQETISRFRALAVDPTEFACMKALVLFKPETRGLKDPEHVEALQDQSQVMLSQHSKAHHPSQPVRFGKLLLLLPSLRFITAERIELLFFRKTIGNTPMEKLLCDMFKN
Protocol: For the transactivation assays involving human PNR (Photoreceptor cell-specific Nuclear Receptor, NR2E3) LBD, we used an already described pBIND-PNR LBD (residues 192–410, [37]) plasmid (gift from Dr. H. Eric Xu, Van Andel Institute). The transient co-transfections of HeLa cells with vectors encoding either Gal4DBD or pBIND-PNR LBD fusion (both at 50 ng/well), pGL4.35 reporter gene (200 ng/well) and renilla luciferase gene (50 ng/well, internal control) were performed in batches of 10^5 cells seeded into 12-well tissue culture plates. Twenty-four hours after the transfections, cells were treated with either DMSO (0.1%, control) or compounds ccrp1, ccrp2 or ccrp3 at 10 µM. Following 24 h incubation, luciferase activities in each well were assessed as described above. Cells transfected with Gal4 DBD vector served as a control for PNR independent effects.

COUP-TFII LBD = biological target: T2, COUP-TFII LBD (Homo sapiens, UniProt P24468); test: GAL4 DBD-COUP-TFII LBD luciferase transactivation assay in HeLa cells; assay type: cell-based; conditions: 10 µM, 24 h, alone or in competition with 9-cis retinoic acid 5 µM
T2 construct: expressed in transfected cells; host or cells: HeLa
T2 sequence (P24468 177-403 limits assumed): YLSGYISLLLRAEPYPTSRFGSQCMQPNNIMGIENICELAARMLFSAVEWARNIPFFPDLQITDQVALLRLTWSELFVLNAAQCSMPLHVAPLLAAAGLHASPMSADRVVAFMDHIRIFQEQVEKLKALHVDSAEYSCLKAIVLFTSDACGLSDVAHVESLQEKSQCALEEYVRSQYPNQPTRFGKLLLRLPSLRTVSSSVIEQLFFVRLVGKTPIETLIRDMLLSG
Protocol: For the transactivation assays with the GAL4 DBD-COUP-TFII LBD plasmid ([28], gift from Dr. H. Eric Xu, Van Andel Institute), we transiently transfected in batches of 10^5 HeLa cells seeded into 12-well tissue culture plates vectors encoding either Gal4 DBD or Gal4 DBD-COUP-TFII LBD fusion (both at 100 ng/well), pGL4.35 reporter gene (200 ng/well) and renilla luciferase gene (100 ng/well, internal control). At 24 h after the transfections, cells were treated with either DMSO (0.1%, control) or compounds ccrp1, ccrp2 or ccrp3 at 10 µM, in the absence or the presence of 9-cis retinoic acid (RA, 5 µM). Following 24 h incubation, luciferase activities in each well were assessed as described above. Cells transfected with Gal4 DBD vector served as a control for COUP-TFII independent effects.

HeLa cells = test: Toxicity observed in transfection experiments; assay type: cell-based, human; conditions: tested at different concentrations
Protocol: HeLa cells were maintained in D-MEM High Glucose (Hyclone) supplemented with 10% charcoal:dextran stripped FBS (Hyclone) and 1x Pen/Strep antibiotics (Life Technologies). Transient transfections were carried out in batches on 100,000 cells seeded into 12-well tissue culture plates. The co-transfections were performed using the TransFectin Lipid reagent (Bio-Rad) with approximately 10 ng/well of Gal4 DBD (gift from Phuong Nguyen, Fletterick Laboratory, UCSF) or GAL4-TLX LBD, 10 ng/well of renilla luciferase gene (Promega) for internal control and 200 ng/well of pGL4.35 reporter gene (containing an upstream Gal4 Upstream Activator Sequence and the luciferase gene, Promega). Approximately, 3 h after transfections, cells were treated with compounds of interest at different concentrations, or solvent (DMSO, 0.1%) in DMEM containing no fetal bovine serum or antibiotics. After a 16-h incubation, luciferase activities were assessed using Dual Luciferase assay reagent (Promega). Luciferase activities were calculated by normalizing firefly luciferase to renilla luciferase signal. Normalized luciferase activities were then represented relative to control (DMSO-treated cells). Cells transfected with Gal4 DBD vector served as a control for TLX independent effects.

ERβ LBD = ERβ LBD (Homo sapiens, UniProt Q92731); test: Gal4 DBD-ERβ LBD luciferase transactivation assay in HeLa cells; assay type: cell-based; set-up: vectors encoding either Gal4 DBD or Gal4 DBD-ERβ LBD fusion; expressed in transfected cells; host or cells: HeLa; conditions: 10 µM, 24 h, alone or in competition with E2 100 nM
ERβ LBD, sequence (Q92731 264-498 limits assumed): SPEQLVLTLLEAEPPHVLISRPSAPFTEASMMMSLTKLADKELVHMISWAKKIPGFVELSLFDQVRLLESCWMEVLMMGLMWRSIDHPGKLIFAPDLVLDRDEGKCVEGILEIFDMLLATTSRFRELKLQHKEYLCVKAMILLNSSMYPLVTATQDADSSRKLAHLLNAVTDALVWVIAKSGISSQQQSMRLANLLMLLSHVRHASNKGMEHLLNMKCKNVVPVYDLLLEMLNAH
Protocol: For ERβ, transient cotransfections of HeLa cells with vectors encoding either Gal4 DBD or Gal4 DBD-ERβ LBD fusion (gift from Dr. Stefan Andersson, University of Houston, deceased), both at 10 ng/well, constructs for Gal4-E1B promoter linked to a luciferase reporter gene (200 ng/well) and renilla luciferase gene (10 ng/well, internal control) were performed in batches of 10^5 cells seeded into 12-well tissue culture plates. At 24 h after the transfections, cells were treated with either DMSO (0.1%, control) or ccrp1; ccrp2 and ccrp3 at 10 µM, in the presence or absence of estradiol (E2, 100 nM), in the medium containing no fetal bovine serum. Following 24 h incubation, luciferase activities in each well were assessed as described above. Cells transfected with Gal4 DBD vector served as a control for ERβ independent effects.

TLX LBD = TLX LBD (Homo sapiens, UniProt Q9Y466); test: Biolayer interferometry (Octet Red 384) direct binding to immobilized TLX LBD; set-up: cDNA fragments encoding human TLX LBD (a.a. 187–385) were cloned; His6 followed by TEV protease cleavage site (N); made in house; host or cells: E. coli BL21 (DE3) star; conditions: for association/dissociation behaviour (sensorgram): dose-response curves; for maximum binding response (plateau): highest concentrations tested, expected maximum 0.08–0.1 nm for 1:1
TLX LBD, sequence (Q9Y466 187-385): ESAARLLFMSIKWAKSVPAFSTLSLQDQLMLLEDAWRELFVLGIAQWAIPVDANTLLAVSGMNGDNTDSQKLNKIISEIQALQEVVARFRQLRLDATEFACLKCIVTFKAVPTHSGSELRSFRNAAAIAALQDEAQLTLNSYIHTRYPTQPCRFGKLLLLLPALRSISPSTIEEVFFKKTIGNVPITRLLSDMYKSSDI
Protocol: Cloning was accomplished with a standard double digest cloning protocol after PCR according to manufacturer’s protocol (Avidity), and the plasmid was sequenced (ACGT, Inc). […] A duplicate set of sensors which serve as reference surfaces were incubated in […] solution of blocked biotinylated Streptavidin protein (Scripps Laboratories) to a loading signal of about 5.5 nm as described by manufacturer’s protocol (FortéBio). Binding of the individual compounds (100 µM) or 1% DMSO (solvent control) was measured over immobilized TLX LBD target biosensors and reference surfaces. Corrected binding response sensorgrams were recorded and analyzed. Data analysis on the FortéBio Octet RED instrument was performed using the FortéBio data analysis software. The analysis accounts for non-specific binding, background, and signal drift and minimizes well based and sensor variability.
The corresponding equilibrium dissociation constants (KD) were determined using steady state analysis of compounds binding affinities, assuming 1∶1 ligand - protein stoichiometry.

Row | Structure (SMILES) | effect on PNR transcriptional activity (human PNR (NR2E3) LBD) | effect on COUP-TFII luciferase activity (COUP-TFII LBD) | toxicity (HeLa cells) | effect on ERβ luciferase activity (ERβ LBD) | association/dissociation behaviour (sensorgram) (TLX LBD) | maximum binding response (plateau) (TLX LBD)
1 | CC(C)c1c(CN(C)C(C)Cc2ccccc2)n(C)n(-c2ccccc2)c1=O (stereo not drawn) [ccrp1, Famprofazone] | None of the compounds affected PNR transcriptional activity | No effect on luciferase activity was detected | None of the three compounds displayed toxicity | No effect on luciferase activity was detected | quick association and dissociation | 0.04 nm
2 | Cc1cc(C(=O)N2CCN(C(c3ccccc3)c3ccccc3)CC2)nn1C [ccrp2, 1-(1,5-dimethylpyrazole-3-carbonyl)-4-(diphenylmethyl)piperazine] | None of the compounds affected PNR transcriptional activity | No effect on luciferase activity was detected | None of the three compounds displayed toxicity | No effect on luciferase activity was detected | quick association and dissociation | 0.06–0.1 nm
3 | CC(=O)[C@H]1CC[C@H]2[C@@H]3C=CC4=CC(=O)CC[C@@]4(C)[C@@H]3CC[C@]12C [ccrp3, Dydrogesterone] | None of the compounds affected PNR transcriptional activity | No effect on luciferase activity was detected | None of the three compounds displayed toxicity | No effect on luciferase activity was detected | quick association and dissociation | 0.06–0.1 nm
